In US20250213560A1, “NITROGEN-CONTAINING HETEROCYCLIC COMPOUNDS HAVING PHENYL GROUP AND USES THEREOF” (BNH RESEARCH CO., LTD., priority 2022, published 2025):
Entries after “also recorded” stand apart in the source; their conditions may differ.

Tests used:
SH-SY5Y cells = experiment: Cytotoxicity test (CCK-8 cell viability) in SH-SY5Y cells; type: cell-based, human; conditions: SH-SY5Y, 0, 0.1, 1, 10, 100 μM, 24 hours
Method: Human undifferentiated neuroblastoma cell line SH-SY5Y and human embryonic kidney cell line (HEK)-293T were purchased from Korean Cell Line Bank (Korea) and Takara (Japan), respectively. Cells were grown in HyClone Minimal Essential Medium (MEM) and Dulbecco's Modified Eagle Medium (DMEM), respectively, supplemented with 10% (v/v) fetal bovine serum (FBS), penicillin (100 U/mL), and streptomycin ([…]). Cells were maintained in a humidified atmosphere of 95% air and 5% CO2 at 37° C. Cells were passaged 10 times at maximum. Cells were dissociated using 0.05% trypsin-EDTA solution and the cells were seeded in new culture dishes for maintenance. […]
The time of co-incubation was 24 hours and six replicates were made for each measurement. Finally, 10 μL of CCK-8 reagent (Dojindo Laboratories, Rockville, MD) was added to each well, and after incubation at 37° C. for 3 minutes, the OD at 450 nm was measured using a multifunction microplate reader (Tecan Infinite M200 Pro). These measurements were compared to that of a control and expressed as a percentage of the control to calculate cell viability. The IC50 value was calculated using SPSS software. To do this, the absorbance of the blank wells with only growth medium is subtracted from the values or the wells with cells. […]
The cytotoxicity of the compound was evaluated by treating cells with BnH12003 and measuring cell viability.

[1] = test system: rodent (rat) model of post-traumatic stress disorder; experiment: Post-traumatic stress disorder animal model, freezing time; type: in vivo; conditions: PTSD rats, intraperitoneal 25 mg/kg, checked at 3-day intervals, compared to control group
Method: The animals were obtained from the DBL. Animals are obtained 7 days before the test start. Twenty male SD-rats aged about 7 weeks were used. Animals were maintained in conventional environmental conditions according to the 12/12 hours light-dark cycle in the colony room, with access to food and water ad libitum. The rats were acclimatized to their new housing cage over a period of 7 days. The animals were carried out for all tests. All experiments were performed in accordance with the Guide for the Care and Use of Laboratory Animals, and all efforts were made to minimize animal suffering. Weight was measured at 3-day intervals from Day 7.
This protocol involves two times exposure to foot shock without an opportunity of escape.
The weight was measured three hours before the experiment. The temperature of the laboratory was maintained at 22° C. The animals were placed in the dark laboratory space for 10 minutes to adapt. The animals were each placed in the first room. […]
The weight was measured three hours before the experiment. […]
For the freezing check, 7 days after the initial foot shock protocol, the rats were placed in the first compartment with sandpaper of the apparatus for 5 minutes (no foot shock) and the freezing behavior was recorded using shutavoid_v1803 program (Panlab, Spain) according to the manufacturer's instruction. […]

C[C@H]1CC[C@@H](C(=O)O)CN1C(=O)Cc1ccc(-c2cncnc2)cc1 [BnH12003, (3R,6S)-6-methyl-1-(2-(4-(pyrimidin-5-yl)phenyl)acetyl) piperidine-3-carboxylic acid]
cell viability (SH-SY5Y cells): no significant change in cell viability | freezing time [1]: liberated such rodents from trauma at a significantly faster rate; also recorded: significant decrease in freezing time
